Data on 5 molecules can be found in paper PMC9502403, “Saquayamycin B1 Suppresses Proliferation, Invasion, and Migration by Inhibiting PI3K/AKT Signaling Pathway in Human Colorectal Cancer Cells” (Marine Drugs, 2022).

Assay [1] has as its system SW620 cells. The experiment in a line: MTT cytotoxicity assay, SW620. Format: cell-based. As to conditions: Homo sapiens, SW-620, 48 h, mean ± SD. The method, then:
(§1) Human CRC cell lines SW480 (BeNa Culture Collection, Xinyang, China), SW620 (Procell Life Science & Technology Co., Ltd., Wuhan, China), and HT-29 (Zhong Qiao Xin Zhou Biotechnology Co., Ltd., Shanghai, China) were cultured in RPMI 1640 Medium (Livning Biotechnology Co., Ltd., Beijing, China), LoVo cells (Zhong Qiao Xin Zhou Biotechnology Co., Ltd., Shanghai, China) were cultured in DMEM/F12 (Livning Biotechnology Co., Ltd., Beijing, China), and normal human liver cell line QSG-7701 (Beyotime Institute of Biotechnology, Shanghai, China) was cultured in DMEM/high glucose (Livning Biotechnology Co., Ltd., Beijing, China) containing 10% fetal bovine serum (FBS) (Gibco Life Technologies, San Jose, CA, USA). The cells were cultured in a constant temperature incubator at 37 °C, 5% CO2.
(§2) The cytotoxicity of Mor B, Saq B1, Saq B, and Lan N on CRC and the normal human liver cells was detected by MTT (3-(4,5-dimethylthiazol)-2,5-diphenyltetrazolium bromide) assay (Sigma-Aldrich Corp., St. Louis, MO, USA). Cells were evenly distributed in 96-well plates overnight and then treated with Mor B, Saq B1, Saq B, and Lan N at different concentrations for 48 h. The negative control group was treated with the same concentration of DMSO. After treatment, 10 μL of the 5 mg/mL MTT solution was added to each well in the incubator for 4 h. Then, the MTT solution was removed and 150 μL DMSO was added into each hole to dissolve the purple crystal. The absorbance of each well was read at 570 nm with a microplate reader, and the IC50 values were calculated using the software. Each sample was measured three times independently.
(Tetrazolium assays rely on reduction of a dye to a coloured formazan, in cell work by metabolically active cells.)

Assay [2] concerns QSG-7701 cells. Kind of assay: MTT cytotoxicity assay, QSG-7701 normal liver cells. Format: cell-based. As to conditions: QSG7701, 48 h, normal human liver cells, mean ± SD. How it is done:
as §1, §2

In assay [3] the test system is HT-29 cells. Kind of assay: MTT cytotoxicity assay, HT-29. As to conditions: Homo sapiens, 48 h, mean ± SD. Format: cell-based. How it is done: as §1, §2
For assay [4], the system named is LoVo cells. The experiment in a line: MTT cytotoxicity assay, LoVo. Format: cell-based. As to conditions: Homo sapiens, 48 h, mean ± SD. The method, then:
as §1, §2

For assay [5], the system named is SW480 cells. The experiment in a line: MTT cytotoxicity assay, SW480. Format: cell-based. As to conditions: Homo sapiens, 48 h, mean ± SD. The method, then: as §1, §2
Assay [6] deals with SW480 cells. Kind of assay: Annexin V-FITC/PI flow cytometry of apoptosis, SW480. Format: cell-based, human. The text has this: (§3) Annexin V-FITC and Propidium Iodide (PI) apoptosis-detection kits were used to determine the specific proportion of apoptotic cells. Annexin V-FITC is used to detect phosphatidylserine, which moves from the inside of the membrane to the surface of the cell membrane during apoptosis, producing green fluorescence. Late apoptotic cells whose cell membrane integrity is destroyed can be stained with PI, producing red fluorescence.
(§4) An Annexin V-FITC apoptosis detection kit was used to detect cell apoptosis by flow cytometry after staining. The cells were placed in 6-well plates and digested by trypsin (Solarbio, Beijing, China) after Saq B1 treatment. Then, the cells were washed with PBS and centrifuged for 5 min, and the supernatant was discarded. Annexin V-FITC binding buffer was added to gently suspend the cells. Annexin V-FITC and PI were successively added and slowly mixed. Apoptosis was immediately assessed by flow cytometry (Becton, Dickinson and Company, San Jose, CA, USA). Each sample was measured three times.
(In general: In flow cytometry, cells or beads pass a laser one at a time.)

Assay [7] deals with SW480 cells. The experiment in a line: Colony formation assay. Format: cell-based, human. As to conditions: SW480, with increasing concentration, 14 days. The text has this: The cell colony formation assay is an important technique for detecting cell proliferation, invasiveness, and drug sensitivity. After digestion of trypsin in the logarithmic growth phase, the cells were inoculated on 6-well plates at a density of 700 cells/well. The medium was refreshed every 3 days and treatment continued for 14 days. Finally, the colonies were fixed with 4% paraformaldehyde and stained with crystal violet. Colonies with >50 cells were counted and photographed.

Assay [8] relates to E-cadherin, N-cadherin, and vimentin. The experiment in a line: Western blot of EMT markers. Format: cell-based, human. The note with it: SW480 and SW620 cells, 0–0.3 μmol/L. The method, then:
(§5) Western blotting was used to reveal changes in the expression of specific proteins after Saq B1 treatment. The cells treated with varying doses of Saq B1 were lysed with RIPA buffer (Beyotime Biotech, Shanghai, China) to obtain total protein, which was quantified using a BCA kit. The proteins with different molecular weights were separated by SDS-PAGE electrophoresis. The protein was transferred to a PVDF membrane and sealed with 5% skim milk for 1 h. After washing with TBS-T buffer, the respective primary antibodies were added to the membrane and incubated at 4 °C overnight. Next, the PVDF membrane was washed with TBS-T buffer three times and incubated with antimouse IgG or antirabbit IgG secondary antibody (CST, Inc., Beverly, MA, USA) for 1 h at room temperature. Proteins on the membranes were visualized using the enhanced chemiluminescence detection kit (ECL®, Amersham Biosciences, Little Chalfont, UK).
(A western blot detects proteins with antibodies after separation by electrophoresis.)

For assay [9], the system named is PI3K/AKT pathway. The experiment in a line: Western blot of PI3K, AKT, p-AKT. The note with it: SW480 and SW620 cells, 0.1 μM, 0.2 μM, and 0.3 μM. Format: cell-based, human. The method, then: as §5
The test system of assay [10] is SW620 cells. The experiment in a line: Annexin V-FITC/PI flow cytometry of apoptosis, SW620. Format: cell-based, human.
Source text: as §3, §4

For assay [11], the system named is SW480 cells. The experiment in a line: Wound-healing assay. Format: cell-based, human. The note with it: SW480, with increasing dose, 48 h. The method, then:
To determine the migratory ability of cells in vitro, we adopted the cell scratch test. Cells were placed in a 6-well plate at a density of 5 × 10^4 cells per well. When the cells had adhered to 90% of each well, we made equal-width scratches at the same position in each hole with sterile micropipette tips. Each well was washed three times with PBS to remove suspended cells. The cells in the well were treated with different concentrations of Saq B1. The wound-healing rate (%) = (1 − (the width of the assay group/the width of the control group)) × 100% was calculated according to the width of the scratches in each group to evaluate the migratory ability of the cells. Each sample was measured three times.

Assay [12] has as its system CRC cells. Kind of assay: MTT cytotoxicity assay, CRC cells (range over lines). Format: cell-based. The note with it: Homo sapiens, range over SW480, SW620, LoVo, HT-29. The method, then: as §1
The cytotoxicity of Mor B, Saq B1, Saq B, and Lan N on CRC and the normal human liver cells was detected by MTT (3-(4,5-dimethylthiazol)-2,5-diphenyltetrazolium bromide) assay (Sigma-Aldrich Corp., St. Louis, MO, USA). Cells were evenly distributed in 96-well plates overnight and then treated with Mor B, Saq B1, Saq B, and Lan N at different concentrations for 48 h. […] The absorbance of each well was read at 570 nm with a microplate reader, and the IC50 values were calculated using the software. Each sample was measured three times independently.

Assay [13] relates to SW480 cells. The experiment in a line: Transwell migration and invasion assay. Format: cell-based, human. The method, then: The transwell assay is used to test the ability of cells to invade and metastasize. In the invasion assay, we placed transwell chambers in a 24-well plate, and cells were suspended in 200 μL serum-free medium at the density of 1 × 10^5 cells/mL. Then, cells were added to an upper chamber containing Matrigel, while 700 μL of the medium containing 20% FBS as a chemo-attractant was added to the lower chamber. The cells were treated with various doses of Saq B1 and incubated with 5% CO2 at 37 °C. Thereafter, all media were discarded, and the cells in the lower chamber were fixed in 4% paraformaldehyde for 20 min and placed in 0.5% crystal violet dye for 20 min. After washing the cells with PBS three times, five regions were selected randomly under the microscope, pictures were taken, and the number of transmembrane cells was counted. The migration assay followed the same procedure as the invasion assay but without Matrigel. Each sample was evaluated independently three times.

Assay [14] concerns Bax/Bcl-2. Kind of assay: Western blot of Bax and Bcl-2. Format: cell-based, human. As to conditions: SW480 and SW620 cells. The method, then:
as §5

Bounds are passed on as bounds.

The IC50 is the concentration that gives 50% inhibition. Turning to `C[C@@H]1O[C@H]2O[C@@H]3[C@@H](C)O[C@@H](c4ccc5c(c4O)C(=O)c4ccc6c(c4C5=O)C(=O)C[C@](C)(O)C6)C[C@H]3O[C@H]2CC1=O` [Moromycin B], the IC50 in [1] was determined as 0.34 ± 0.05 µM; in assay [2], 1.26 ± 0.15 µM; in [3], 0.82 ± 0.04 µM; in [4], 0.78 ± 0.02 µM; in assay [5], 0.45 ± 0.06 µM.

As to `COc1cccc2c1C(=O)c1c(O)c3c(c(O)c1C2=O)C[C@@](O)(C(=O)CO)C[C@@H]3O[C@H]1C[C@H](N)[C@H](O)[C@H](C)O1` [Doxorubicin, reference compound], the IC50 in assay [1] amounted to 1.06 ± 0.11 µM; in [2] it was 1.33 ± 0.03 µM; in assay [3], 1.02 ± 0.1 µM; in assay [4] it was 0.83 ± 0.12 µM; in assay [5], 0.91 ± 0.08 µM.

As for `C[C@@H]1O[C@@H](O[C@H]2CC[C@H](O[C@@]3(C)CC(=O)[C@]4(O)C5=C(C=C[C@]4(O)C3)C(=O)c3c(ccc([C@H]4C[C@H]6O[C@H]7CC(=O)[C@H](C)O[C@H]7O[C@@H]6[C@@H](C)O4)c3O)C5=O)O[C@H]2C)C=CC1=O` [Saquayamycin B], the half-maximal inhibitory concentration (IC50) in assay [1] stood at 0.42 ± 0.02 µM; in assay [2] it was 1.38 ± 0.14 µM; in [3], 0.89 ± 0.02 µM; in [4] it was 0.75 ± 0.03 µM; in [5], 0.32 ± 0.03 µM.

Consider `C[C@@H]1O[C@H]2O[C@@H]3[C@@H](C)O[C@@H](c4ccc5c(c4O)C(=O)C4=C(C5=O)[C@@]5(O)C(=O)C[C@](C)(O)C[C@@]5(O)C=C4)C[C@H]3O[C@H]2CC1=O` [Saquayamycin B1], for which the apoptosis rate in assay [6] (SW480, Saq B1 0.1 μM) is recorded as 24.31%; in assay [6] (SW480, Saq B1 0.2 μM), 30.75%; in assay [6] (SW480, Saq B1 0.3 μM), 40.12%; in assay [10] (SW620, Saq B1 0.1 μM), 8.11%; in assay [10] (SW620, Saq B1 0.2 μM) it was 12.67%; in [10] (SW620, Saq B1 0.3 μM), 30.69%. Further, the “size and number of cell clones” value in assay [7] is “declined”. In assay [8], the “expression of epithelial adhesion protein E-cadherin” value was “increased”. In addition, the “expression of mesenchymal protein N-cadherin” value in [8] was “decreased”. Besides, the “expression of mesenchymal protein vimentin” value in [8] is “decreased”. The IC50 in [1] is 0.26 ± 0.03 µM; in assay [2], 1.57 ± 0.12 µM; in assay [3], 0.84 ± 0.05 µM; in assay [12], 0.18 to 0.84 µM; in assay [4], 0.63 ± 0.07 µM; in [5], 0.18 ± 0.01 µM. The “protein expression level of AKT” value in [9] is “basically unchanged”. Also, in [9], the “protein expression level of PI3K” value is “decreased”. Further, the “protein expression level of p-AKT” value in assay [9] is “decreased”. In addition, in [11], the “wound-healing rate of cells” value is reported as “decreased gradually”. Also, in assay [13], the “cellular migration and invasion” value is on record as “dose-dependent inhibition”. For the same molecule, the “expression of Bax/Bcl-2” value in assay [14] is on record as “increased”.

On to `Cc1cc(O)c2c3c(cc(O)c2c1)C(=O)c1c(ccc([C@H]2C[C@H]4O[C@H]5CC(=O)[C@H](C)O[C@H]5O[C@@H]4[C@@H](C)O2)c1O)C3=O` [Landomycin N], for which the IC50 in assay [1], in [2], in [3], in assay [4] and in assay [5] was over 20 µM each time.
